Measurements from PubChem BioAssay AID2745 (NMMLSC, 2010).
Where “and” joins values, the source holds several entries; their conditions need not be identical. Identical values can stand only once. Calls of active or inactive are those of the source. The rule behind the calls is not given here.

Columns and labels:
[1] = test system: S. cerevisiae LAP4-GFP reporter, flow cytometry fluorescence; test: concentration series on yeast TOR reporter LAP4 – cell-based, MLPCN hits, flow cytometry, dose response (AID 2745);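 note: yeast exposed to compound for three hours at 30 degrees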
[2] = as above; conditions: S. cerevisiae LAP4-GFP reporter, flow cytometry fluorescence; at 33 µM (top of the series)

## CN(Cc1cnc2nc(N)nc(N)c2n1)c1ccc(C(=O)N[C@@H](CCC(=O)O)C(=O)O)cc1
[1]
  EC50: 5.18 µM
[2]
  LAP4-GFP fluorescence (kMESF): 10.8 kMESF (inactive)

## O=C(NC(=S)NNC(=O)c1cnccn1)c1ccc(F)cc1
[1]
  EC50: 7.94 µM

## O=[N+]([O-])c1cc(F)c2cccnc2c1O
[1]
  EC50: 1.19 µM

## CCOC(=O)CSC1=NC(=O)/C(=C/c2ccc(Br)cc2)S1
[1]
  EC50: 15 µM

## O=c1cc(CSc2ccc(Cl)cc2)nc(-c2ccccn2)[nH]1
[1]
  EC50: 6.28 µM

## O=C1ON=C(c2ccccc2)/C1=C/c1ccco1
[1]
  EC50: 4.26 µM

## Cc1cc(C)c(S(=O)(=O)ON2C(=O)c3ccccc3C2=O)cc1C
[1]
  EC50: 3.12 µM

## O=[N+]([O-])c1ccc(O)c2ncccc12
[1]
  EC50: 0.607 µM and 0.752 µM

## Cc1ccc(NC(=O)c2ccc(Cl)c(N3C(=O)C=CC3=O)c2)cc1
[1]
  EC50: 1.59 µM

## Cc1ccc(C(=O)Oc2oc(-c3ccco3)nc2C=Nc2ccc(Cl)cc2)cc1
[1]
  EC50: 3.6 µM

## CCn1c(=O)c(C(=O)Nc2nc3ccccc3[nH]2)c(O)c2ccccc21
[1]
  EC50: 0.45 µM

## Cc1ccc(/C=C2/SC(=S)N(C3CCCCC3)C2=O)o1
[1]
  EC50: 13.3 µM

## COc1ccc(N2C(=O)/C(=C/c3cccs3)C(=O)NC2=S)cc1
[1]
  EC50: 1.32 µM

## Cc1ccc(/C=C2/C(=O)ON=C2c2ccccc2)o1
[1]
  EC50: 3.48 µM

## O=C(Nc1nc(-c2ccccn2)cs1)C1COc2ccccc2O1 (configuration not stated)
[1]
  EC50: 3.9 µM

## Cc1cccc(C(=O)NC(=S)NNC(=O)Cc2ccccc2)c1
[1]
  EC50: 10.9 µM
